Consider 7 compounds from the supplement of paper PMC11061612.

What all share (assay): combination Emax (second highest fraction inhibited in the dose matrix, 72 h); higher = more inhibition; extreme values may be limits of the assay
Experiment [1] deals with KMRC-1 (Kidney Carcinoma). An outline of the steps:
(§1)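 Cell lines grown in DMEM/F12 or RPMI with 10% FBS were plated in 1536-well plates and held 24 hours at 37°C, 5% CO2 before 72 hours of exposure to two-drug dose matrices, with DMSO typically at 0.2%. CellTiter-Glo 2.0 luminescence gave viability, which was converted to inhibition. Vehicle wells were set to 0 and blank wells to 1. Combination Emax is the second-highest inhibition in the matrix, and Bliss excess is the observed combination effect minus the expected EA + EB − EA·EB, where EA and EB are the single-agent effects.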

The test system of experiment [2] is DU-145 (Prostate Carcinoma). An outline of the steps:
as §1

Experiment [3] has as its system COLO-668 (Small Cell Lung Carcinoma). An outline of the steps: as §1
Experiment [4] deals with KGN (Other Solid Carcinomas). An outline of the steps: as §1
In experiment [5] the test system is SK-LU-1 (Lung Adenocarcinoma). An outline of the steps: as §1
The subject of experiment [6] is A4-Fuk (B-Lymphoblastic Leukemia). An outline of the steps: as §1
Experiment [7] concerns SKN (Other Solid Carcinomas). In a few lines: as §1
Experiment [8] concerns NCI-H650 (Lung Adenocarcinoma). In a few lines: as §1
The subject of experiment [9] is SNU-387 (Hepatocellular Carcinoma). In a few lines: as §1
Experiment [10] has as its system Ca-Ski (Cervical Carcinoma). An outline of the steps:
as §1

Experiment [11] relates to NCI-H522 (Lung Adenocarcinoma). An outline of the steps: as §1
Experiment [12] deals with NCI-H1838 (Lung Adenocarcinoma). An outline of the steps:
as §1

Experiment [13] relates to MOLT-4 (T-Lymphoblastic Leukemia). In a few lines: as §1
Experiment [14] relates to MDA-MB-453 (Breast Carcinoma). In a few lines:
as §1

Experiment [15] relates to NCI-H1355 (Lung Adenocarcinoma). An outline of the steps: as §1
The subject of experiment [16] is KOPN-8 (B-Lymphoblastic Leukemia). An outline of the steps: as §1
For experiment [17], the system named is Mo-T (Other Blood Carcinomas). An outline of the steps: as §1
In another experiment the test system is COLO-679 (Melanoma). An outline of the steps:
as §1

In the case of `CS(=O)(=O)CCNCc1ccc(-c2ccc3ncnc(Nc4ccc(OCc5cccc(F)c5)c(Cl)c4)c3c2)o1` [Lapatinib] + NC1(c2ccc(-c3nc4ccn5c(=O)[nH]nc5c4cc3-c3ccccc3)cc2)CCC1 [MK-2206] (first compound max 10 µM, 7x7, partner max 10 µM), the “combination Emax” value in experiment [1] came out at 0.792; in experiment [2], 0.297; in experiment [3], 0.508; in experiment [4] it was 0.85; in experiment [5], 0.335; in [6], 0.971. The “combination Emax” value in [7] was 0.658; in experiment [8] it was 0.31; in [9], 0.873; in [10], 0.758; in experiment [11], 0.322; in [12] it was 0.348. Moreover, the “combination Emax” value in [13] is 0.938; in experiment [14], 0.801; in experiment [15] it was 0.286; in experiment [16], 0.936; in experiment [17], 0.948; in the experiment on COLO-679 (Melanoma) it was 0.618.

For `O=C(c1cc(Cc2n[nH]c(=O)c3ccccc23)ccc1F)N1CCN(C(=O)C2CC2)CC1` [Olaparib] + CC1(C)CCC(CN2CCN(c3ccc(C(=O)NS(=O)(=O)c4ccc(NCC5CCOCC5)c([N+](=O)[O-])c4)c(Oc4cnc5[nH]ccc5c4)c3)CC2)=C(c2ccc(Cl)cc2)C1 [Venetoclax] (first compound max 10 µM, 7x7, partner max 1 µM), the “combination Emax” value worked out at 0.182 in experiment [1]; 0.126 in experiment [2]; 0.255 in experiment [3]; 0.292 in [4]; 0.2 in [5]; 0.301 in experiment [6]. Besides, the “combination Emax” value in experiment [7] came to 0.104; in experiment [9] it was 0.256; in [10], 0.162; in [11], 0.0786; in [13] it was 0.7; in experiment [14], 0.104. The “combination Emax” value came out at 0.172 in experiment [15], 0.186 in [17] and 0.0175 in the experiment on COLO-679 (Melanoma).

For the compound `O=C(c1cc(Cc2n[nH]c(=O)c3ccccc23)ccc1F)N1CCN(C(=O)C2CC2)CC1` [Olaparib] + CN(CC[C@H](CSC1=CC=CC=C1)NC2=C(C=C(C=C2)S(=O)(=O)NC(=O)C3=CC=C(C=C3)N4CCC(CC4)[C@H](C5=CC=CC=C5C6=CC=C(C=C6)Cl)O)S(=O)(=O)C(F)(F)F)CCO [AZD4320] (first compound max 10 µM, 7x7, partner max 1 µM), the “combination Emax” value in experiment [1] was 0.219; in [2], 0.0992; in [3], 0.823; in experiment [4], 0.298; in experiment [5], 0.48; in [6], 0.0633. The “combination Emax” value amounted to 0.174 in experiment [7]; 0.304 in experiment [9]; 0.26 in experiment [10]; 0.0607 in experiment [11]; 0.977 in [13]; 0.224 in [14]. For the same compound, the “combination Emax” value in experiment [15] amounted to 0.198; in experiment [17], 0.844; in the experiment with COLO-679 (Melanoma), 0.0175.

For the compound `O=C(c1cc(Cc2n[nH]c(=O)c3ccccc23)ccc1F)N1CCN(C(=O)C2CC2)CC1` [Olaparib] + COc1nnc2ccc(N3CCC(c4ccc(OCCN5CCN(C)C(=O)[C@H]5C)cc4)CC3)nn12 [AZD5153] (first compound max 10 µM, 7x7, partner max 1 µM), the “combination Emax” value was 0.277 in [1]; 0.219 in experiment [2]; 0.323 in [3]; 0.712 in experiment [4]; 0.332 in experiment [5]; 0.876 in experiment [6]. In addition, the “combination Emax” value in experiment [7] came out at 0.553; in experiment [9], 0.419; in experiment [10] it was 0.481; in experiment [11], 0.309; in [13], 0.591; in [14] it was 0.664. The results for the “combination Emax” value (in experiment [15]; in [17]; in the experiment with COLO-679 (Melanoma)) were 0.335, 0.59 and 0.321, respectively.

Consider `O=C(c1cc(Cc2n[nH]c(=O)c3ccccc23)ccc1F)N1CCN(C(=O)C2CC2)CC1` [Olaparib] + Cc1c2c(nn1C)CSCc1cc(n(C)n1)CSc1cc(c3ccccc3c1)OCCCc1c(C(=O)O)n(C)c3c-2c(Cl)ccc13 [AZD5991] (first compound max 10 µM, 7x7, partner max 1 µM), for which the “combination Emax” value in [1] was 0.0973; in experiment [2] it was 0.121; in experiment [3] it was 0.0291; in experiment [4], 0.162; in experiment [5] it was 0.216; in [6], 1. The “combination Emax” value in [7] came out at 0.126; in experiment [9], 0.427; in experiment [10], 0.146; in [11] it was 0.479; in experiment [13], 0.878; in experiment [14] it was 0.341. For the same compound, the results for the “combination Emax” value (in [15]; in [17]; in the experiment on COLO-679 (Melanoma)) were 0.146, 0.0919 and 0.119, respectively.

With `Cc1nc(-c2cn3c(n2)-c2ccc(-c4cnn(C(C)(C)C(N)=O)c4)cc2OCC3)n(C(C)C)n1` [Taselisib] + O=C(Nc1ccc2[nH]nc(-c3ccncc3)c2c1)[C@@H]1CCN(CC(=O)N2CCN(c3ccc(-c4ncccn4)cc3)CC2)C1 [SCH772984] (first compound max 10 µM, 7x7, partner max 5 µM), the “combination Emax” value in experiment [1] stood at 0.543; in experiment [2] it was 0.342; in experiment [3], 0.855; in experiment [4] it was 0.816; in [5], 0.516; in experiment [6] it was 1. For the same compound, the “combination Emax” value was found to be 0.735 in [7]; 0.996 in [9]; 0.833 in experiment [10]; 0.339 in [11]; 0.837 in experiment [13]; 0.721 in experiment [14]. Moreover, the entries for the “combination Emax” value (in experiment [15]; in experiment [17]; in the experiment with COLO-679 (Melanoma)) were 0.656, 0.477 and 0.851, respectively.

For `CC1(C)CCC(CN2CCN(c3ccc(C(=O)NS(=O)(=O)c4ccc(NCC5CCOCC5)c([N+](=O)[O-])c4)c(Oc4cnc5[nH]ccc5c4)c3)CC2)=C(c2ccc(Cl)cc2)C1` [Venetoclax] + CS(=O)(=O)CCNCc1ccc(-c2ccc3ncnc(Nc4ccc(OCc5cccc(F)c5)c(Cl)c4)c3c2)o1 [Lapatinib] (first compound max 1 µM, 7x7, partner max 10 µM), the “combination Emax” value was determined as 0.595 in experiment [1]; 0.127 in experiment [2]; 0.282 in experiment [3]; 0.4 in [4]; 0.183 in [5]; 0.832 in experiment [6]. Moreover, the “combination Emax” value came out at 0.196 in experiment [7]; 0.078 in experiment [9]; 0.503 in experiment [10]; 0.153 in experiment [11]; 0.502 in experiment [13]; 0.419 in experiment [14]. Besides, the “combination Emax” value in [15] was found to be 0.16; in [17], 0.33; in the experiment on COLO-679 (Melanoma) it was 0.0296.
